Measured values as given in US8987474B2 (University of South Florida, priority 2006, dated 2015).
Several values for one entry are separate records, joined by “and”; a condition that tells them apart may be missing. Equal entries are not always repeated.

Biological target: Shp2 (Homo sapiens (Human), UniProt Q06124)
Assay: PTP activity assay (DiFMUP substrate) with GST-Shp2
Format: biochemical
Conditions: for IC50: Table II, Shp2
Description: All constructs were verified by DNA sequencing.
Recombinant DEP1 was from Abcam.

Shp2, sequence (Q06124 205-593): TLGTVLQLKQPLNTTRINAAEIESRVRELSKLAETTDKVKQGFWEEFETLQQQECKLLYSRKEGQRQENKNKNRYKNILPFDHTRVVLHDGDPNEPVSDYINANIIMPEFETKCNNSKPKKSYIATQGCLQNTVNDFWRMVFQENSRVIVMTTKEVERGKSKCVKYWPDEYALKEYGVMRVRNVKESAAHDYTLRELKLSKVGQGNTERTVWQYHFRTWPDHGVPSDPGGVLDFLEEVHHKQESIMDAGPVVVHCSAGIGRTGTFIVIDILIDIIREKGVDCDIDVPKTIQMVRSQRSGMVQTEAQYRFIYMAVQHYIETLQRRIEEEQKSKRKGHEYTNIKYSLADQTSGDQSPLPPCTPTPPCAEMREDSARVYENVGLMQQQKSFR

| SMILES | % PTP activity (concentration not given) | % PTP activity (at 20 μM) | IC50 [µM] |
| --- | --- | --- | --- |
| CCC(C)NS(=O)(=O)c1ccc2c(c1)/C(=N/Nc1ccccc1Cl)C(=O)N2 (stereo not shown) [HL2-016-13] | 35 ± 4% (6) |  |  |
| Cc1ccccc1N/N=C1\C(=O)Nc2ccc(S(=O)(=O)O)cc21 [RPM216, 2-Oxo-3-[(2-methylphenylhydrazono)]-2,3-dihydro-1H-indole-5-sulfonic acid] |  | 50 ± 14% (3) at 20 μM |  |
| CC(C)NC(=O)c1ccc2c(c1)/C(=N/Nc1ccccc1C(=O)O)C(=O)N2 [HL2-070-6] |  | 78.87% (1) at 20 μM |  |
| CN(C)CCNS(=O)(=O)c1ccc2c(c1)/C(=N/Nc1ccccc1Cl)C(=O)N2 [HL2-016-19] | 89 ± 3% (6) |  |  |
| O=C1Nc2ccc(S(=O)(=O)O)cc2/C1=N/Nc1cc(Cl)ccc1Cl [RPM225, 2-Oxo-3-[(2,5-dichlorophenylhydrazono)]-2,3-dihydro-1H-indole-5-sulfonic acid] |  | 73 ± 22% at 20 μM | 33 to 100 |
| O=C1Nc2ccccc2/C1=N/Nc1ccccc1[N+](=O)[O-] [HL1-047] | 93 ± 9% (3) |  | 33 to 100 |
| NS(=O)(=O)c1ccc2c(c1)/C(=N/Nc1ccccc1Cl)C(=O)N2 [HL2-016.2] | 40 ± 8% (12) |  |  |
| COCCNS(=O)(=O)c1ccc2c(c1)/C(=N/Nc1ccccc1Cl)C(=O)N2 [HL2-016-12] | 32 ± 3% (6) |  |  |
| O=C(O)c1ccc2cc(C(=O)Nc3c(O)cccc3C(=O)O)ccc2c1 [RPM204] |  | 68 ± 5% (3) at 20 uM | 33 to 100 |
| CC(C)NS(=O)(=O)c1ccc2c(c1)/C(=N/Nc1ccccc1C(=O)NCc1ccccc1)C(=O)N2 [RPM287, N-Benzyl-2-[N′-(5-isopropylsulfamoyl-2-oxo-1,2-dihydro-indol-3-ylidene)hydrazino]benzamide] |  | 48 ± 10% (2) At 20 μM |  |
| O=C1Nc2ccc(S(=O)(=O)NCN3CCOCC3)cc2/C1=N/Nc1ccccc1Cl [HL2-016-8] | 41 ± 4% (6) |  |  |
| CC(C)NS(=O)(=O)c1ccc2c(c1)/C(=N/Nc1ccccc1C(=O)NCCN(C)C)C(=O)N2 [RPM284, N-(2-Dimethylaminoethyl)-2-[N′-(5-isopropylsulfamoyl-2-oxo-1,2-dihydro-indol-3-ylidene)hydrazino]benzamide] |  | 47 ± 6% (2) At 20 μM |  |
| CCOC(=O)c1ccc(N/C=C2\C(=O)Nc3ccc(S(=O)(=O)NC(C)C)cc32)cc1 [RPM288, 4-[(5-Isopropylsulfamoyl-2-oxo-1,2-dihydro-indol-3-ylidenemethyl)amino]benzoic acid ethyl ester] |  | 30 ± 2% (2) at 20 μM |  |
| O=C1Nc2ccc(S(=O)(=O)O)cc2/C1=N/Nc1ccc(Cl)cc1Cl [RPM224, 2-Oxo-3-[(2,4-dichlorophenylhydrazono)]-2,3-dihydro-1H-indole-5-sulfonic acid] |  | 81 ± 10% (3) at 20 μM | 33 to 100 |
| CC(C)NS(=O)(=O)c1ccc2c(c1)/C(=N/Nc1cccc(C(=O)NCCN(C)C)c1)C(=O)N2 [RPM326, N-(2-Dimethylamino-ethyl)-3-[N′-(5-isopropylsulfamoyl-2-oxo-1,2-dihydro-indol-3-ylidene)hydrazino]benzamide] |  | 57 + 13% (2) at 20 μM |  |
| O=C1Nc2ccccc2/C1=N/Nc1cccc([N+](=O)[O-])c1 [HL1-050-2] | 32 ± 3% (3) |  |  |
| O=C1Nc2ccc(S(=O)(=O)O)cc2/C1=N/Nc1ccccc1Cl [HL1-058-1] | 69 ± 9% (2) |  | 33 to 100 |
| O=C1Nc2ccc(S(=O)(=O)NCc3ccccn3)cc2/C1=N/Nc1ccccc1[N+](=O)[O-] [RPM135, 3-[(2-Nitrophenyl)hydrazono]-2-oxo-2,3-dihydro-1H-indole-5-sulfonic acid (pyridin-2-ylmethyl)amide] | 47 ± 10% (12) |  | 33 to 100 |
| O=C(O)c1ccc2[nH]cc(C(=O)c3ccccc3)c2c1 [RPM352, 3-Benzoyl-1H-indole-5-carboxylic acid] |  | 57 ± 9% (2) at 20 μM |  |
| CCN(CC)C(=O)c1ccc2c(c1)/C(=N/Nc1ccccc1C(=O)O)C(=O)N2 [HL2-070-1] |  | 100.18% (1) at 20 μM |  |
| O=C1Nc2ccc(S(=O)(=O)NCc3cccnc3)cc2/C1=N/Nc1ccccc1[N+](=O)[O-] [HL2-016-20] | 68 ± 8% (6) |  |  |
| O=C1Cc2cc(S(=O)(=O)NCc3ccc(Cl)cc3)ccc2N1 [RPM307, 2-Oxo-2,3-dihydro-1H-indole-5-sulfonic acid 4-chloro-benzylamide] |  | 39 ± 10% (20 at 20 μM |  |
| CN(C)S(=O)(=O)c1ccc2c(c1)/C(=N/Nc1ccccc1Cl)C(=O)N2 [HL2-016-1] | 36 ± 11% (12) |  |  |
| O=C(O)c1cc(NC(=O)c2ccc3cc(C(=O)O)ccc3c2)cc(C(=O)O)c1 [HL2-026] | 87 ± 14% (6) |  |  |
| CCN1C(=O)/C(=N\Nc2ccccc2[N+](=O)[O-])c2cc(S(=O)(=O)N(C)C)ccc21 [RPM176, 1-Ethyl-3-[(2-nitro-phenyl)-hydrazono]-2-oxo-2,3-dihydro-1H-indole-5-sulfonic acid dimethylamide] | 50% ± 5% (6) |  |  |

| SMILES | % PTP activity (concentration not given) | % PTP activity (at 20 μM) | IC50 [µM] |
| --- | --- | --- | --- |
| CC(C)NS(=O)(=O)c1ccc2c(c1)/C(=N/Nc1cccc(C(=O)NCc3cccnc3)c1)C(=O)N2 [RPM332, 3-[N′-(5-Isopropylsulfamoyl-2-oxo-1,2-dihydro-indol-3-ylidene)hydrazino]-N-pyridin-3-ylmethylbenzamide] |  | 54 ± 7% (2) at 20 μM | 33 to 100 |
| CN1C(=O)/C(=N\Nc2ccccc2[N+](=O)[O-])c2cc(S(=O)(=O)N(C)C)ccc21 [RPM154] | 73 ± 3% (6) |  |  |
| NS(=O)(=O)c1ccc(NC(=O)c2ccc3cc(C(=O)O)ccc3c2)cc1 [RPM195] |  | 54 ± 6% (3) at 20 uM |  |
| O=C1Nc2ccc(C(=O)O)cc2/C1=N/Nc1ccccc1[N+](=O)[O-] [HL2-054] |  | 60.57% (1) at 20 μM |  |
| CCCNS(=O)(=O)c1ccc2c(c1)/C(=N/Nc1ccccc1Cl)C(=O)N2 [HL2-016-9] | 48 ± 1% (6) |  |  |
| CCN(CC)C(=O)c1ccc2c(c1)/C(=N/Nc1ccccc1[N+](=O)[O-])C(=O)N2 [HL2-070-3] |  | 14 ± 2% (2) at 20 μM |  |
| COCCNS(=O)(=O)c1ccc2c(c1)/C(=N/Nc1ccccc1[N+](=O)[O-])C(=O)N2 [RPM171, 3-[(2-Nitrophenyl)hydrazono]-2-oxo-2,3-dihydro-1H-indole-5-sulfonic acid (2-methoxyethyl)amide] | 44 ± 8% (12) |  |  |
| O=C1Nc2ccc(S(=O)(=O)O)cc2/C1=N/Nc1cccc2ccccc12 [RPM223, 3-(Naphthalen-1-ylhydrazono)-2-oxo-2,3-dihydro-1H-indole-5-sulfonic acid] |  | 76 + 12% at 20 μM | 33 to 100 |
| CN(Cc1ccccc1)S(=O)(=O)c1ccc2c(c1)/C(=N/Nc1ccccc1[N+](=O)[O-])C(=O)N2 [RPM136, 3-[(2-Nitrophenyl)hydrazono]-2-oxo-2,3-dihydro-1H-indole-5-sulfonic acid benzyl-methylamide] | 39 ± 8% (12) |  |  |
| O=C1Nc2ccc(S(=O)(=O)NCc3cccnc3)cc2/C1=N/Nc1ccccc1Cl [HL2-016-18] | 78 ± 10% (6) |  |  |
| O=C1Nc2ccc(C(=O)O)cc2/C1=N/Nc1ccccc1F [RPM319] |  | 49 ± 4% (2) At 20 μM | > 100 |
| CC(C)NS(=O)(=O)c1ccc2c(c1)/C(=N/Nc1ccccc1C(=O)N(C)C)C(=O)N2 [RPM294, 2-[N′-(5-Isopropylsulfamoyl-2-oxo-1,2-dihydro-indol-3-ylidene)hydrazino]-N,N-dimethylbenzamide] |  | 48 ± 0% (2) At 20 μM |  |
| O=C1Nc2ccc(C(=O)O)cc2/C1=N/Nc1ccccc1 [RPM272, 3-(Phenylhydrazono)-2-oxo-2,3-dihydro-1H-indole-5-carboxylic acid] |  | 43 ± 4% at 20 μM |  |
| CC(C)NS(=O)(=O)c1ccc2c(c1)/C(=N/Nc1ccccc1C(=O)NCc1cccnc1)C(=O)N2 [RPM290, 2-[N′-(5-Isopropylsulfamoyl-2-oxo-1,2-dihydro-indol-3-ylidene)hydrazino]-N-pyridin-3-ylmethylbenzamide] |  | 46 ± 2% (2) At 20 μM | 33 to 100 |
| O=C1Nc2ccc(S(=O)(=O)NCc3ccc(Cl)cc3)cc2/C1=N/Nc1ccccc1C(=O)O [RPM191, 2-[N′-[5-(4-Chloro-benzylsulfamoyl)-2-oxo-1,2-dihydro-indol-3-ylidene]hydrazino}benzoic acid] |  | 65.07% and 53.99% | 33 to 100 |
| CN(C)S(=O)(=O)c1ccc2c(c1)/C(=N/Nc1ccccc1[N+](=O)[O-])C(=O)N2 [RPM124, 3-[(2-Nitrophenyl)hydrazono]-2-oxo-2,3-dihydro-1H-indole-5-sulfonic acid dimethylamide] | 52 ± 5% (6) |  | 33 to 100 |
| CC(C)NS(=O)(=O)c1ccc2c(c1)/C(=N/Nc1cccc(C(=O)NCc3ccco3)c1)C(=O)N2 [RPM333, N-Furan-2-ylmethyl-3-[′-(5-isopropylsulfamoyl-2-oxo-1,2-dihydro-indol-3-ylidene)hydrazino]benzamide] |  | 48 ± 9% (2) at 20 μM | 33 to 100 |
| COC(=O)c1ccc2cc(C(=O)Nc3ccc(S(N)(=O)=O)cc3)ccc2c1 [RPM187] |  | 66 ± 4% (3) at 20 uM |  |
| CCN(CC)C(=O)c1ccc2c(c1)/C(=N/Nc1cccc(C(=O)O)c1)C(=O)N2 [HL2-070-2] |  | 57.16% (1) at 20 μM |  |
| COC(=O)c1ccc2[nH]cc(C(=O)c3ccccc3)c2c1 [RPM341, 3-Benzoyl-1H-indole-5-carboxylic acid methyl ester] |  | 42 ± 10% (2) at 20 μM |  |
| O=C1Nc2ccc(S(=O)(=O)NCc3ccc(Cl)cc3)cc2/C1=N/Nc1ccccc1Cl [HL2-016-4] | 32 ± 17% (12) |  |  |
| COC(=O)c1ccc2cc(C(=O)Nc3c(O)cccc3C(=O)O)ccc2c1 [RPM202] |  | 58 ± 7% (3) at 20 uM | 33 to 100 |
| O=C1Nc2ccc(S(=O)(=O)NCc3ccco3)cc2/C1=N/Nc1ccccc1[N+](=O)[O-] [RPM168, 3-[(2-Nitrophenyl)hydrazono]-2-oxo-2,3-dihydro-1H-indole-5-sulfonic acid (furan-2-ylmethyl)amide] | 42 + 4% (6) |  |  |
| O=C1Nc2ccc(S(=O)(=O)NCc3cccs3)cc2/C1=N/Nc1ccccc1Cl [HL2-016-6] | 51 ± 3% (6) |  |  |
| O=C1Nc2ccc(S(=O)(=O)N3CCOCC3)cc2/C1=N/Nc1ccccc1[N+](=O)[O-] [RPM177] | 36 ± 8% (6) |  |  |
